# According to article PMC10267100 (Communications Biology, 2023):
# Assays:
# [1] = test system: M1 cells overexpressing PTP1B; assay: IL-6 dose response (differentiation) in M1 cells overexpressing PTP1B; type: cell-based, murine; settings: IL-6 dose response, Fig. 1a, approximate
# Description: The M1 murine myeloid leukemic cell line responds in a dose-dependent manner to IL-6 stimulation. Culturing M1 cells in IL-6 results in differentiation from monocytic-like progenitor cells into terminally differentiated macrophages that undergo cell death. […] This was in contrast to five other phosphatases that were similarly overexpressed. Using an Incucyte growth assay, the growth of wild-type M1 cells was compared to that of M1 cells overexpressing HALO-PTP1B both with and without IL-6 (Fig. 1b). […] As expected, there was no difference in the growth rate of any of these cell lines in the absence of IL-6. […] To confirm that the activation loop of the JAKs are indeed a target of PTP1B, dephosphorylation assays with activated recombinant JAK kinase domains were performed in vitro. All four members of the JAK family were dephosphorylated in a PTP1B-dependent manner although JAK1 was dephosphorylated to a lesser extent than others (Fig. 1c). […]
# Murine PTP1B with an N-terminal Halo tag was sub-cloned into the Tet-On pfTRE3G expression vector for generation of a stable doxycycline-inducible Halo-mPTP1B expressing HEK293T cell line. […] 24 h post-transfection, cells were lysed in sample reducing buffer and analysed by SDS-PAGE and immunoblot as above (dephosphorylation assays). […]
# [2] = test system: WT M1 parental cells (M1 murine myeloid leukemic cell line); assay: IL-6 dose response (differentiation) in WT M1 cells; type: cell-based; settings: IL-6 dose response, Fig. 1a, approximate
# Description: The M1 murine myeloid leukemic cell line responds in a dose-dependent manner to IL-6 stimulation. Culturing M1 cells in IL-6 results in differentiation from monocytic-like progenitor cells into terminally differentiated macrophages that undergo cell death. […] This was in contrast to five other phosphatases that were similarly overexpressed. Using an Incucyte growth assay, the growth of wild-type M1 cells was compared to that of M1 cells overexpressing HALO-PTP1B both with and without IL-6 (Fig. 1b). […] As expected, there was no difference in the growth rate of any of these cell lines in the absence of IL-6. […] To confirm that the activation loop of the JAKs are indeed a target of PTP1B, dephosphorylation assays with activated recombinant JAK kinase domains were performed in vitro. All four members of the JAK family were dephosphorylated in a PTP1B-dependent manner although JAK1 was dephosphorylated to a lesser extent than others (Fig. 1c).
# Fig. 1 PTP1B dephosphorylates the JAK activation loops. a IL-6 dose response curves for phosphatases overexpressed in the M1 cell line. […] (Top) Immunoblot (IB) probing for phosphorylated-JAK (P-JAK1 antibody) activation loop. (Bottom) Ponceau stained membrane to confirm equal input of proteins on gel. Data are representative of 3 independent experiments. d Overexpression of FLAG-JAK and HALO-PTP1B in HEK293T cells. […]
substance,measurement,setting,value
IL-6: cytokine used to stimulate M1 cells,EC50 of IL-6 (induction of differentiation),[1],approximately 10 ng/mL
same,EC50 of IL-6 (induction of differentiation),[2],~2 ng/mL
